{"source": "ChEMBL document CHEMBL1201862", "about": "“PubChem BioAssay data set” (2004)", "test_in_all_cases": "inhibition of tumour cell growth, NCI panel, 48 h", "key": {"786-0": {"system": "786-0"}, "A498": {"system": "A498"}, "A549": {"system": "A549"}, "ACHN": {"system": "ACHN"}, "CAKI-1": {"system": "CAKI-1"}, "CCRF-CEM": {"system": "CCRF-CEM"}, "COLO 205": {"system": "COLO 205"}, "DLD-1": {"system": "DLD-1"}, "DMS-114": {"system": "DMS-114"}, "DMS-273": {"system": "DMS-273"}, "EKVX": {"system": "EKVX"}, "HCC 2998": {"system": "HCC 2998"}, "HCT-116": {"system": "HCT-116"}, "HCT-15": {"system": "HCT-15"}, "HL-60": {"system": "HL-60"}, "HOP-18": {"system": "HOP-18"}, "HOP-62": {"system": "HOP-62"}, "HOP-92": {"system": "HOP-92"}, "HT-29": {"system": "HT-29"}, "IGROV-1": {"system": "IGROV-1"}, "K562": {"system": "K562"}, "KM-20L2": {"system": "KM-20L2"}, "KM12": {"system": "KM12"}, "LOX IMVI": {"system": "LOX IMVI"}, "LXFL 529": {"system": "LXFL 529"}, "M14": {"system": "M14"}, "M19-MEL": {"system": "M19-MEL"}, "MOLT-4": {"system": "MOLT-4"}, "Malme-3M": {"system": "Malme-3M"}, "NCI-H226": {"system": "NCI-H226"}, "NCI-H23": {"system": "NCI-H23"}, "NCI-H460": {"system": "NCI-H460"}, "NCI-H522": {"system": "NCI-H522"}, "OVCAR-3": {"system": "OVCAR-3"}, "OVCAR-4": {"system": "OVCAR-4"}, "OVCAR-5": {"system": "OVCAR-5"}, "OVCAR-8": {"system": "OVCAR-8"}, "RPMI-8226": {"system": "RPMI-8226"}, "RXF 393": {"system": "RXF 393"}, "SF-268": {"system": "SF-268"}, "SF-295": {"system": "SF-295"}, "SF-539": {"system": "SF-539"}, "SK-MEL-28": {"system": "SK-MEL-28"}, "SK-MEL-2": {"system": "SK-MEL-2"}, "SK-MEL-5": {"system": "SK-MEL-5"}, "SK-OV-3": {"system": "SK-OV-3"}, "SN12C": {"system": "SN12C"}, "SNB-19": {"system": "SNB-19"}, "SNB-75": {"system": "SNB-75"}, "SNB-78": {"system": "SNB-78"}, "SR": {"system": "SR"}, "SW-620": {"system": "SW-620"}, "TK-10": {"system": "TK-10"}, "U-251": {"system": "U-251"}, "UACC-257": {"system": "UACC-257"}, "UACC-62": {"system": "UACC-62"}, "UO-31": {"system": "UO-31"}}, "note": "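Assay format: 96-well plates, 48-hour exposure. The concentration for 50% growth inhibition is given as GI50.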 The source made the active and inactive calls. No stated cut-off is given here; in the data, active = GI50 up to about 1.1 µM and inactive = higher.", "data": [{"smiles": "C=C(c1ccccc1)C1(O)CCCCC1N", "note": "(configuration not stated)", "values": [{"measurement": "GI50", "setting": "786-0", "result": "> 100 µM (inactive)"}, {"measurement": "GI50", "setting": "A498", "result": "> 100 µM (inactive)"}, {"measurement": "GI50", "setting": "A549", "result": "> 100 µM (inactive)"}, {"measurement": "GI50", "setting": "ACHN", "result": "> 100 µM (inactive)"}, {"measurement": "GI50", "setting": "CAKI-1", "result": "> 43.2 µM (inactive)"}, {"measurement": "GI50", "setting": "CCRF-CEM", "result": "33.9 µM (inactive)"}, {"measurement": "GI50", "setting": "COLO 205", "result": "> 100 µM (inactive)"}, {"measurement": "GI50", "setting": "DLD-1", "result": "> 100 µM (inactive)"}, {"measurement": "GI50", "setting": "DMS-114", "result": "> 100 µM (inactive)"}, {"measurement": "GI50", "setting": "DMS-273", "result": "> 100 µM (inactive)"}, {"measurement": "GI50", "setting": "EKVX", "result": "> 100 µM (inactive)"}, {"measurement": "GI50", "setting": "HCC 2998", "result": "> 100 µM (inactive)"}, {"measurement": "GI50", "setting": "HCT-116", "result": "> 100 µM (inactive)"}, {"measurement": "GI50", "setting": "HCT-15", "result": "> 100", "unit": "µM"}, {"measurement": "GI50", "setting": "HL-60", "result": "16.6 µM (inactive)"}, {"measurement": "GI50", "setting": "HOP-18", "result": "> 100 µM (inactive)"}, {"measurement": "GI50", "setting": "HOP-62", "result": "> 100 µM (inactive)"}, {"measurement": "GI50", "setting": "HOP-92", "result": "> 100 µM (inactive)"}, {"measurement": "GI50", "setting": "HT-29", "result": "> 100 µM (inactive)"}, {"measurement": "GI50", "setting": "IGROV-1", "result": "> 100 µM (inactive)"}, {"measurement": "GI50", "setting": "K562", "result": "> 100 µM (inactive)"}, {"measurement": "GI50", "setting": "KM-20L2", "result": "> 100 µM (inactive)"}, {"measurement": "GI50", "setting": "KM12", "result": "> 100 µM (inactive)"}, {"measurement": "GI50", "setting": "LOX IMVI", "result": "> 100 µM (inactive)"}, {"measurement": "GI50", "setting": "LXFL 529", "result": "> 100 µM (inactive)"}, {"measurement": "GI50", "setting": "M14", "result": "> 100 µM (inactive)"}, {"measurement": "GI50", "setting": "M19-MEL", "result": "> 100 µM (inactive)"}, {"measurement": "GI50", "setting": "MOLT-4", "result": "31.8 µM (inactive)"}, {"measurement": "GI50", "setting": "Malme-3M", "result": "> 100 µM (inactive)"}, {"measurement": "GI50", "setting": "NCI-H226", "result": "> 100 µM (inactive)"}, {"measurement": "GI50", "setting": "NCI-H23", "result": "> 100 µM (inactive)"}, {"measurement": "GI50", "setting": "NCI-H460", "result": "> 100 µM (inactive)"}, {"measurement": "GI50", "setting": "NCI-H522", "result": "> 100 µM (inactive)"}, {"measurement": "GI50", "setting": "OVCAR-3", "result": "> 89.5 µM (inactive)"}, {"measurement": "GI50", "setting": "OVCAR-4", "result": "> 100 µM (inactive)"}, {"measurement": "GI50", "setting": "OVCAR-5", "result": "> 100 µM (inactive)"}, {"measurement": "GI50", "setting": "OVCAR-8", "result": "> 100 µM (inactive)"}, {"measurement": "GI50", "setting": "RPMI-8226", "result": "50.7 µM (inactive)"}, {"measurement": "GI50", "setting": "RXF 393", "result": "> 100 µM (inactive)"}, {"measurement": "GI50", "setting": "SF-268", "result": "> 100 µM (inactive)"}, {"measurement": "GI50", "setting": "SF-295", "result": "> 100 µM (inactive)"}, {"measurement": "GI50", "setting": "SF-539", "result": "> 100 µM (inactive)"}, {"measurement": "GI50", "setting": "SK-MEL-28", "result": "> 100 µM (inactive)"}, {"measurement": "GI50", "setting": "SK-MEL-2", "result": "> 100 µM (inactive)"}, {"measurement": "GI50", "setting": "SK-MEL-5", "result": "> 100 µM (inactive)"}, {"measurement": "GI50", "setting": "SK-OV-3", "result": "> 100 µM (inactive)"}, {"measurement": "GI50", "setting": "SN12C", "result": "> 100 µM (inactive)"}, {"measurement": "GI50", "setting": "SNB-19", "result": "> 100 µM (inactive)"}, {"measurement": "GI50", "setting": "SNB-75", "result": "> 85.7 µM (inactive)"}, {"measurement": "GI50", "setting": "SNB-78", "result": "> 100 µM (inactive)"}, {"measurement": "GI50", "setting": "SR", "result": "30.3 µM (inactive)"}, {"measurement": "GI50", "setting": "SW-620", "result": "> 100 µM (inactive)"}, {"measurement": "GI50", "setting": "TK-10", "result": "> 100 µM (inactive)"}, {"measurement": "GI50", "setting": "U-251", "result": "> 100 µM (inactive)"}, {"measurement": "GI50", "setting": "UACC-257", "result": "> 100 µM (inactive)"}, {"measurement": "GI50", "setting": "UACC-62", "result": "> 100 µM (inactive)"}, {"measurement": "GI50", "setting": "UO-31", "result": "> 100 µM (inactive)"}]}]}
